Test results reported in patent publication US20220053762A1, “HERBICIDAL COMPOSITIONS” (Bayer Aktiengesellschaft, priority 2018, published 2022).

System: harmful plant species
Assay: Specific trial examples: binary compositions applied by the post-emergence method, synergistic effect according to Colby (Tables 3.1-3.2)
Type: in vivo
Conditions: for Herbicidal action in [%] 28 DAT against Bromus sterilis: g a.i./ha: r617 4, r618 450; for Herbicidal action in [%] 28 DAT against Poa annua L.: g a.i./ha: r721 16, r722 450
Procedure: When the observed efficacies already exceed the formal sum total of the values of the tests with individual applications, they also exceed the expected value according to Colby, which is calculated using the formula below and is likewise regarded as an indication of synergism (cf. S. R. Colby; in Weeds 15 (1967) p. 20 to 22):
Seeds or rhizome pieces of mono- and dicotyledonous weeds are placed in sandy loam in pots, covered with soil and grown in a greenhouse under good growth conditions (temperature, air humidity, water supply). Three weeks after sowing, the test plants are treated at the three-leaf stage with the compositions according to the invention. The compositions according to the invention formulated as spray powders or as emulsion concentrates are sprayed onto the green plant parts in various dosages with an application rate of 300 to 800 l/ha of water (equivalent).
The sum total of the effects of the individual applications is reported under E^A; Expected values according to Colby are each reported under E^C.
The rating period is reported in days after application (DAT).

[1] = post-emergence, single active compound (A5 series)
[2] = post-emergence, single active compound (A5 series), g a.i./ha: r649 1, r650 150
[3] = post-emergence, single active compound (A5 series), g a.i./ha: r659 1, r660 450
[4] = post-emergence, single active compound (A5 series), g a.i./ha: r669 1, r670 450
[5] = post-emergence, single active compound

Structure (SMILES): CP(=O)(O)CCC(N)C(=O)O (centres unmarked) [(B7.4) Glufosinate]
- Herbicidal action 28 DAT [%] against Eleusine indica (post-emergence, single active compound (A2 series), g a.i./ha: r337 150, r339 5): 50%
- Herbicidal action 28 DAT [%] against Kochia scoparia (post-emergence, single active compound (A2 series), g a.i./ha: r347 50, r349 5): 10%
- Herbicidal action 28 DAT [%] against Polygonum convulvulus (post-emergence, single active compound (A2 series), g a.i./ha: r357 50, r359 5): 30%
- Herbicidal action 28 DAT [%] against Kochia scoparia (post-emergence, single active compound (A3 series), g a.i./ha: r384 50, r386 45, r387 15, r388 5): 10%
- Herbicidal action in [%] 14 DAT against Galium aparine (post-emergence, single active compound (A4 series), g a.i./ha: r479 16, r480 4, r481 1, r482 150): 30%
- Herbicidal action in [%] 28 DAT against Galium aparine (post-emergence, single active compound (A4 series), g a.i./ha: r491 16, r492 50): 30%
- Herbicidal action in [%] 14 DAT against Lamium purpureum L. (post-emergence, single active compound (A4 series), g a.i./ha: r501 4, r502 1, r503 450): 80%
- Herbicidal action in [%] 28 DAT against Lamium purpureum L. (post-emergence, single active compound (A4 series), g a.i./ha: r512 4, r513 1, r514 450): 60%
- Herbicidal action in [%] 28 DAT against Lolium rigidum (resistant bio type) (post-emergence, single active compound (A4 series), g a.i./ha: r523 1, r524 450): 20%
- Herbicidal action in [%] 14 DAT against Poa annua L. (post-emergence, single active compound (A4 series), g a.i./ha: r533 16, r534 450): 40%
- Herbicidal action in [%] 28 DAT against Bromus sterilis [1]: 10%
- Herbicidal action in [%] 14 DAT against Centaurea cyanus (post-emergence, single active compound (A5 series), g a.i./ha: r627 16, r628 1, r629 450, r630 150): 70%
- Herbicidal action in [%] 14 DAT against Galium aparine [2]: 30%
- Herbicidal action in [%] 14 DAT against Lamium purpureum L. [3]: 80%
- Herbicidal action in [%] 28 DAT against Lamium purpureum L. [4]: 60%
- Herbicidal action 28 DAT [%] against Setaria faberi (post-emergence, single active compound, g a.i./ha: r40 50, r42 15, r43 5): 10%
- Herbicidal action 28 DAT [%] against Setaria viridis (post-emergence, single active compound, g a.i./ha: r51 50, r53 15, r54 5, r55 1.67): 10%
- Herbicidal action 28 DAT [%] against Abutilon theophrasti (post-emergence, single active compound, g a.i./ha: r77 450, r79 15, r80 5): 90%
- Herbicidal action 28 DAT [%] against Euphorbia heterophylla (post-emergence, single active compound, g a.i./ha: r88 150, r89 50, r90 45, r91 15, r92 5): 15%
- Herbicidal action 28 DAT [%] against Bromus sterilis (post-emergence, single active compound, g a.i./ha: r172 5, r173 1.67, r174 450): 30%
- Herbicidal action 28 DAT [%] against Galium aparine (post-emergence, single active compound, g a.i./ha: r183 5, r184 50): 0%
- Herbicidal action 28 DAT [%] against Lamium purpureum (post-emergence, single active compound, g a.i./ha: r204 45, r205 50): 50%
- Herbicidal action 28 DAT [%] against Lolium rigidum (sensitive biotype) (post-emergence, single active compound, g a.i./ha: r214 15, r215 150, r216 50): 0%
- Herbicidal action 28 DAT [%] against Lolium rigidum (resistant biotype) (post-emergence, single active compound, g a.i./ha: r224 15, r225 5, r226 150, r227 50): 0%
- Herbicidal action 28 DAT [%] against Veronica hederifolia (post-emergence, single active compound, g a.i./ha: r292 5, r293 150): 70%
- Herbicidal action 28 DAT [%] against Brachiaria platyphylla (post-emergence, single active compound, g a.i./ha: r314 50, r316 15, r317 5, r318 1.7): 30%
- Herbicidal action 28 DAT [%] against Pharbitis purpurea (post-emergence, single active compound, g a.i./ha: r396 50, r398 5): 40%
- Herbicidal action in [%] 28 DAT against Poa annua L. [5]: 30%

Structure (SMILES): CONC(=O)C1=C[C@@H](NC(=O)[C@@]2(C)CC(c3cc(F)cc(F)c3)=NO2)CO1 [Compound A5, (5R)-3-(3,5-difluorophenyl)-N-[(3R)-5-(methoxycarbamoyl)-2,3-dihydrofuran-3-yl]-5-methyl-4H-isoxazole-5-carboxamide]
- Herbicidal action 14 DAT against Lolium rigidum (resistant biotype) (1 g a.i./ha): 10%
- Herbicidal action 14 DAT against Matricaria inodora (1 g a.i./ha): 30%
- Herbicidal action 14 DAT against Viola tricolor (1 g a.i./ha): 30%
- Herbicidal action 28 DAT against Centaurea cyanus (1 g a.i./ha): 10%
- Herbicidal action 28 DAT against Galium aparine (1 g a.i./ha): 30%
- Herbicidal action 28 DAT against Lamium purpureum L. (1 g a.i./ha): 40%
- Herbicidal action 28 DAT against Matricaria inodora (1 g a.i./ha): 0%
- Herbicidal action 28 DAT against Viola tricolor (1 g a.i./ha): 0%
- Herbicidal action 14 DAT against Lolium rigidum (resistant biotype) (4 g a.i./ha): 20%
- Herbicidal action 14 DAT against Matricaria inodora (4 g a.i./ha): 50%
- Herbicidal action 14 DAT against Viola tricolor (4 g a.i./ha): 20%
- Herbicidal action 28 DAT against Centaurea cyanus (4 g a.i./ha): 20%
- Herbicidal action 28 DAT against Matricaria inodora (4 g a.i./ha): 10%
- Herbicidal action 28 DAT against Phalaris minor (4 g a.i./ha): 30%
- Herbicidal action 28 DAT against Viola tricolor (4 g a.i./ha): 0%
- Herbicidal action 14 DAT against Alopecurus myosuroides (16 g a.i./ha): 70%
- Herbicidal action 14 DAT against Lolium rigidum (16 g a.i./ha): 60%
- Herbicidal action 14 DAT against Lolium rigidum (resistant biotype) (16 g a.i./ha): 30%
- Herbicidal action 14 DAT against Matricaria inodora (16 g a.i./ha): 50%
- Herbicidal action 14 DAT against Poa annua L. (16 g a.i./ha): 30%
- Herbicidal action 28 DAT against Alopecurus myosuroides (16 g a.i./ha): 40%
- Herbicidal action 28 DAT against Centaurea cyanus (16 g a.i./ha): 50%
- Herbicidal action 28 DAT against Lamium purpureum L. (16 g a.i./ha): 60%
- Herbicidal action 28 DAT against Matricaria inodora (16 g a.i./ha): 20%
- Herbicidal action 28 DAT against Phalaris minor (16 g a.i./ha): 40%
- Herbicidal action 28 DAT against Viola tricolor (16 g a.i./ha): 10%
- Herbicidal action against Lolium rigidum ((Z119) 14 DAT, g a.i./ha: r682 16, r683 30): 60%
- Herbicidal action against Phalaris minor ((Z119) 14 DAT, g a.i./ha: r709 4, r710 270): 70%
- Herbicidal action against Poa annua L. ((Z119) 14 DAT, g a.i./ha: r729 4, r730 270): 20%
- Herbicidal action against Alopecurus myosuroides ((Z119) 28 DAT, g a.i./ha: r642 16, r643 4, r644 90, r645 30, r646 270): 40%
- Herbicidal action against Centaurea cyanus ((Z119) 28 DAT, g a.i./ha: r654 16, r655 30): 50%
- Herbicidal action against Galium aparine ((Z119) 28 DAT, g a.i./ha: r662 1, r663 270): 30%
- Herbicidal action against Lolium rigidum ((Z119) 28 DAT, g a.i./ha: r690 16, r691 30): 30%
- Herbicidal action in [%] 28 DAT against Alopecurus myosuroides (post-emergence, single active compound (A5 series), g a.i./ha: r591 16, r592 4, r593 450, r594 150, r595 50): 40%
- Herbicidal action in [%] 28 DAT against Bromus sterilis [1]: 60%
- Herbicidal action in [%] 14 DAT against Galium aparine [2]: 50%
- Herbicidal action in [%] 14 DAT against Lamium purpureum L. [3]: 60%
- Herbicidal action in [%] 28 DAT against Lamium purpureum L. [4]: 40%
- Herbicidal action in [%] 28 DAT against Phalaris minor (post-emergence, single active compound (A5 series), g a.i./ha: r700 16, r701 450, r702 150): 40%
- Herbicidal action in [%] 14 DAT against Poa annua L. (post-emergence, single active compound (A5 series), g a.i./ha: r710 16, r711 450, r712 150, r713 50): 30%
- Herbicidal action in [%] 28 DAT against Lolium rigidum (post-emergence, single active compound, g a.i./ha: r679 16, r680 150, r681 50): 30%
- Herbicidal action in [%] 14 DAT against Lolium rigidum (resistant bio type) (post-emergence, single active compound, g a.i./ha: r689 16, r690 450, r691 150, r692 50): 30%
- Herbicidal action in [%] 28 DAT against Poa annua L. [5]: 20%
